Here are results for three compounds from patent publication US7939567B2, “Dextromethorphan-based method for treating acne” (Blue Blood Biotech Corp., priority 2006, dated 2011).

The subject of series [1] is TNF-α. Nature of the series: LPS-induced macrophage release of TNF-α (THP-1, ELISA). Particulars: for concentration of TNF-α in the medium of THP-1 cells after LPS stimulation: pretreated 1 hour, various concentrations, then LPS 24 hours. Format: cell-based, human. The method, then:
(§1) The monocytic THP-1 cells were cultured and differentiated into macrophages. The macrophages were pretreated with various concentrations of Dextromethophan or naloxone for 1 hour and subsequently incubated with lipopolysaccharide (LPS) for 24 hours.
(§2) RPMI 1640 medium, phorbol 12-myristate-13-acetate (PMA), LPS (Escherichia coli 0111:B4) and naloxone were purchased from Sigma. The human THP-1 monocytic cell line was purchased from Food Industry Research and Development Institute, Hsin Chu, Taiwan. Levels of tumor necrosis factor-α (TNF-α), interleukin-6 (IL-6) and monocyte chemoattractant protein-1 (MCP-1) in medium were determined with monoclonal antibody based ELISA kits purchased from R&D Systems (Minneapolis, Minn., USA), and all animal experiments were approved by the Institutional Animal Care and Use Committee.
The THP-1 cells were grown in RPMI-1640 medium containing 10% fetal bovine serum at 37° C. in 5% CO2. The cells were differentiated to macrophages after treatment with 100 nM PMA to the culture for 24 hours. The cell suspension (5×10^5) was added in 0.5 mL into each well of the tissue culture plates. LPS was dissolved in sterile water and stored at −70[…] in aliquots. In treatment group, the THP-1 cell culture was pretreated for 1 hour with various concentrations of dextromethorphan or naloxone and followed by treatment with 10 μg/mL LPS for up to 24 hours. […] The levels of TNF-α, IL-6 and MCP-1 in the supernatants were determined using ELISA kits.
The inflammatory reaction can be inhibited by dextromethorphan at less than 0.01 μM. The THP-1 cell treated with LPS at 1 Unit/ml in the presence of dextromethorphan for 24 hrs and the TNF-α and IL-6 released in the culture medium was measured with ELISA (FIG. 1). […] The results are expressed as mean±SD of 3 experiments. ** p<0.01 and *** p<0.001 are compared with the LPS-treated cultures.
(§3) Effect of naloxone treatment on the LPS-induced macrophage release of TNF-α (A), IL-6 (B) and MCP-1 (C). […] The results are expressed as mean±SD of 3 experiments. * p<0.05; ** p<0.01; *** p<0.001 compared with the LPS-treated cultures (FIG. 2).

The test system of series [2] is IL-6. Nature of the series: LPS-induced macrophage release of IL-6 (THP-1, ELISA). Format: cell-based, human. Particulars: pretreated 1 hour, various concentrations, then LPS 24 hours. The method, then:
as §1, §2
The THP-1 cells were grown in RPMI-1640 medium containing 10% fetal bovine serum at 37° C. in 5% CO2. […] The levels of TNF-α, IL-6 and MCP-1 in the supernatants were determined using ELISA kits.
The inflammatory reaction can be inhibited by dextromethorphan at less than 0.01 μM. The THP-1 cell treated with LPS at 1 Unit/ml in the presence of dextromethorphan for 24 hrs and the TNF-α and IL-6 released in the culture medium was measured with ELISA (FIG. 1). […] The results are expressed as mean±SD of 3 experiments. ** p<0.01 and *** p<0.001 are compared with the LPS-treated cultures. […]

The subject of series [3] is MCP-1. Nature of the series: LPS-induced macrophage release of MCP-1 (THP-1, ELISA). Format: cell-based, human. To be noted: pretreated 1 hour, various concentrations, then LPS 24 hours. The method, then: as §1, §2
The THP-1 cells were grown in RPMI-1640 medium containing 10% fetal bovine serum at 37° C. in 5% CO2. The cells were differentiated to macrophages after treatment with 100 nM PMA to the culture for 24 hours. […] The levels of TNF-α, IL-6 and MCP-1 in the supernatants were determined using ELISA kits.
as §3

Series [4] concerns Propionibacterium acnes. Kind of series: MIC test of P. acnes (broth dilution, OD595). Particulars: anaerobic, 37° C., 96 hours. Also on record: key: +: Growth Inhibition; —: No Growth Inhibition. Format: cell-based. The method, then: Prepared DM stock solution in 500,000 ppm (50%). Added 0.25 g DM into […] DMSO and stirred until mixed well. Then serial diluted 500,000 ppm DM. Centrifuged 5 ml Propionibacterium acnes in RCM (Reinforced Clostridial Medium) culture. Adjusted concentration of bacteria cell in medium by 20 times dilution about OD595=0.1×10^6 CFU/ml. Dispersed 200 μl bacteria cell in medium in aliquot to each 96-well plate. Mixed medium including bacteria cell and 2 μl DM, triplicate tests at each concentration. Bacteria cultured under anaerobic at 37° C. for 96 hours and measured the value at OD595. MIC meant the lowest concentration of anti-bacterial agent that sufficient to suppress the growth of bacteria (e.g. growth inhibition).

Series [5] concerns P. acnes. Kind of series: DM disc diffusion on P. acnes lawn. Format: cell-based, Propionibacterium acnes. Particulars: 37° C., 96 hours. The method, then: Spread 0.1 ml medium including bacteria cells which OD595 value was about 0.1×10^6 CFU/ml onto RCM agar plate. Pasted 0.8 cm filter paper and dropped 20 μl of DM into it. Bacteria were cultured under anaerobic at 37° C. for 96 hours and the size of the antibiotic circle was measured.

Series [6] deals with Bacteroides fragilis. Nature of the series: MIC test of B. fragilis (thioglycollate broth). Format: cell-based. Also on record: key: +: Growth Inhibition; —: No Growth Inhibition. Particulars: anaerobic, 24 h. The method, then: Bacteroides fragilis growing in 18-24 hours in the anaerobic thioglycollate broth was used to formulate the suspension of bacteria cells of McFarland 0.5. Diluted 0.5 g/ml DMSO stock solution with anaerobic Thioglycollate broth. Added 1000 μl anaerobic Thioglycollate broth into 1000 μl of DM diluent with 1:1 ratio, and then put into the anaerobic incubator to incubate for 24 h.

Series [7] has as its system E. coli. Kind of series: DM disc diffusion on E. coli lawn. Format: cell-based. To be noted: 37° C., 96 hours. The method, then:
Base for antimicrobial disk diffusion Susceptibility Testing is made of Mueller Hinton II agar obtained from Becton, Dickinson and Company, France.
Prepared Mueller-Hinton-II-agar by suspending 38 g of the powder in 1L of double-distilled water. Autoclaved the agar at 121° C. for 15 min. t The agar was poured into each agar plate and waited for solidifying. E. coli of 1×10^5 CFU in 100 μl medium was spread on to the agar plate and were grown for 96 hours.

Series [8] deals with Staphylococcus aureaus. Kind of series: DM disc diffusion on S. aureus lawn. Format: cell-based. Particulars: S. aueaus lawn, 37° C., 96 hours. The method, then:
Based for antimicrobial disk diffusion Susceptibility Testing is Mueller Hinton II agar obtained from Becton, Dickinson and Company, France.
Prepared Mueller-Hinton-II-agar by suspending 38 g of the powder in 1L of double-distilled water. Autoclaved the agar at 121° C. for 15 min. The agar was poured into each agar plate and waited for solidifying. S. aureaus of 10^5 CFU in 100 μl medium were spread on the agar plate and were grown for 96 hours.

For series [9], the system named is TNF-a. Particulars: LPS-induced endotoxemia in rodents; mitigation of circulatory failure and mortality; cited from earlier work.
For series [10] the following is noted: humans, oral dosage form, either alone or with quinidine; cited from earlier work.

As to `C=CCN1CC[C@]23c4c5ccc(O)c4O[C@H]2C(=O)CC[C@@]3(O)[C@H]1C5` [naloxone, 17-allyl-4,5α-epoxy-3,14-dihydroxymorphinan-6-one], the “concentration of TNF-α in the medium of THP-1 cells after LPS stimulation” value in [1] was “significantly reduced”. The “concentration of IL-6 in the medium of THP-1 cells after LPS stimulation” value in [2] is reported as “significantly reduced”. Besides, in series [3], the “concentration of MCP-1 in the medium of THP-1 cells after LPS stimulation” value was “significantly reduced”.
On to `COc1ccc2c(c1)[C@]13CCCC[C@@H]1[C@H](C2)N(C)CC3` [DM, (+)-3-methoxy-17-methyl-9a,13a,14a-morphinan], for which the “Growth Inhibition” value in [4] (DM 125 ppm (0.0125%)) is on record as “—”; in [4] (DM 250 ppm (0.025%)), “—”; in [4] (DM 500 ppm (0.05%)), “+”; in [4] (DM 1000 ppm (0.1%)), “+”; in [4] (DM 1250 ppm (0.125%)), “+”; in series [4] (DM 2500 ppm (0.25%)) it was “+”. Further, the “Growth Inhibition” value was “+” in series [4] (DM 5000 ppm (0.5%)); “—” in series [6] (DM 500 ppm (0.05%)); “—” in series [6] (DM 1000 ppm (0.1%)); “+” in series [6] (DM 1250 ppm (0.125%)); “+” in series [6] (DM 2500 ppm (0.25%)); “+” in series [6] (DM 5000 ppm (0.5%)). Moreover, the “Diameter of clear zone” value was determined as 12 mm in [5] (2.5% DM, Disc No. 6, anaerobic); 34 mm in series [5] (5% DM, Disc No. 5, anaerobic); 9.5 mm in [7] (2.5% DM); 13 mm in series [7] (5% DM); 18 mm in series [7] (10% DM); 10 mm in series [8] (5% DM). Further, the “Diameter of clear zone” value in series [8] (10% DM) is reported as 14 mm. The “concentration at which the inflammatory reaction can be inhibited” value in series [1] (THP-1 cell treated with LPS for 24 hrs, TNF-α and IL-6 released in medium measured with ELISA) is “less than 0.01 μM”. In series [1], the “concentration of TNF-α in the medium of THP-1 cells after LPS stimulation” value is listed as “significantly reduced”. Moreover, the “concentration of IL-6 in the medium of THP-1 cells after LPS stimulation” value in series [2] is given as “significantly reduced”. Also, the “concentration of MCP-1 in the medium of THP-1 cells after LPS stimulation” value in series [3] was “significantly reduced”. In addition, the “effect on TNF-a, NO and superoxide anion” value in series [9] was “inhibits”. In addition, the “well tolerated oral dosage” value in [10] is recorded as “up to 120 milligrams (mg) per day”.
On to `Oc1cc(Cl)ccc1Oc1ccc(Cl)cc1Cl` [Triclosan], for which the “Diameter of clear zone” value in series [5] (0.1% Triclosan, Disc No. 8, anaerobic) turned out to be 30 mm.
